Results published in ChEMBL document CHEMBL5226347, “Discovery of Chromane-6-Sulfonamide Derivative as a Potent, Selective, and Orally Available Novel Retinoic Acid Receptor-Related Orphan Receptor γt Inverse Agonist” (J Med Chem, 2021).
pIC50: −log10 of the molar value. Values after ≈ are worked out from the molar mass of the structure shown. Active and inactive are the calls of the source. No cut-off for these calls is given here.

Columns and labels:
[1] = Tmax in mouse at 0.3 mg/kg, iv measured at 2 to 1440 mins by LC-MS analysis; format: ADME, organism-based; conditions: in vivo, time 2-1440 min
[2] = Lipophilicity, log D of the compound at pH 7.4; format: physicochemical; conditions: buffer
[3] = Metabolic stability in human liver microsomes assessed as parent compound remaining measured at 60 mins by HPLC-MS/MS analysis; format: ADME, Microsome; conditions: 1 h
Mus musculus [4] = assay: Antiinflammatory activity against imiquimod-induced Balb/c mouse skin inflammation model assessed as reduction in scaling at 5 to 20 mg/kg, po BID for 13 days; format: functional, organism-based; conditions: dose 5-20 mg/kg, time 13.0 day
Mus musculus [5] = assay: Antiinflammatory activity against imiquimod-induced Balb/c mouse skin inflammation model assessed as decrease in skin thickening at 10 to 20 mg/kg, po measured for 13 days; format: functional, organism-based; conditions: dose 10-20 mg/kg, time 13.0 day
[6] = Tmax in mouse at 1 mg/kg, po measured at 5 to 1440 mins by LC-MS analysis; format: ADME, organism-based; conditions: in vivo, time 5-1440 min
Mus musculus [7] = assay: Antiinflammatory activity against imiquimod-induced Balb/c mouse skin inflammation model assessed as reduction in skin thickening at 5 to 20 mg/kg, po BID for 13 days; format: functional, organism-based; conditions: dose 5-20 mg/kg, time 13.0 day
Mus musculus [8] = assay: Antiinflammatory activity against imiquimod-induced Balb/c mouse skin inflammation model assessed as decrease in erythema at 5 to 20 mg/kg, po BID for 13 days; format: functional, organism-based; conditions: dose 5-20 mg/kg, time 13.0 day
Mus musculus [9] = assay: Antiinflammatory activity against imiquimod-induced Balb/c mouse skin inflammation model assessed as inhibition of IL-6 level at 20 mg/kg, po measured for 13 days; format: functional; parameters: scale not given: the % may be the effect or the level left; conditions: time 13 day
[10] = Oral bioavailability in mouse at 1 mg/kg measured at 5 to 1440 mins by LC-MS analysis; format: ADME, organism-based; conditions: in vivo, time 5-1440 min
[11] = AUC (0 to t) in mouse at 0.3 mg/kg, iv measured at 2 to 1440 mins by LC-MS analysis; format: ADME, organism-based; parameters: time lower 2 min, dose 0.3 mg/kg, time upper 1440 min, route iv; conditions: in vivo
[12] = AUC (0 to t) in mouse at 1 mg/kg, po measured at 5 to 1440 mins by LC-MS analysis; format: ADME, organism-based; parameters: time 5-1440 min, dose 1 mg/kg, route po; conditions: in vivo
[13] = Solubility of compound in aqueous buffer at pH 7.4; format: physicochemical
[14] = Half life in mouse at 0.3 mg/kg, iv measured at 2 to 1440 mins by LC-MS analysis; format: ADME, organism-based; conditions: in vivo, time 2-1440 min
[15] = AUC (0 to infinity) in mouse at 1 mg/kg, po measured at 5 to 1440 mins by LC-MS analysis; format: ADME, organism-based; parameters: dose 1 mg/kg, time 5-1440 min, route po; conditions: in vivo
[16] = Half life in mouse at 1 mg/kg, po measured at 5 to 1440 mins by LC-MS analysis; format: ADME, organism-based; conditions: in vivo, time 5-1440 min
[17] = Metabolic stability in human liver assessed as intrinsic clearance incubated for 5 to 30 mins by HPLC-MS/MS analysis; format: ADME, tissue-based; conditions: liver (preparation not stated), time 5-30 min, read-out: CLH
[18] = Cmax in mouse at 0.3 mg/kg, iv measured at 2 to 1440 mins by LC-MS analysis; format: ADME, organism-based; parameters: time 2-1440 min, dose 0.3 mg/kg, route iv; conditions: in vivo
[19] = Toxicity in Balb/c mouse assessed as inflammatory cell infiltration at 10 to 20 mg/kg, po administered for 13 days; format: organism-based; conditions: in vivo, 312 h, dose 10-20 mg/kg, time 13 day
[20] = Volume of distribution at steady state in mouse at 0.3 mg/kg, iv measured at 2 to 1440 mins by LC-MS analysis; format: ADME, organism-based; conditions: in vivo, time 2-1440 min, read-out: Vdss
[21] = biological target: T1, Nuclear receptor ROR-beta (Homo sapiens, UniProt Q92753); assay: Inhibition of human GAL4-fused RORbeta LBD transfected in HEK293T cell measured for 16 to 20 hrs by dual-glo luciferase assay; format: cell-based
T1 sequence (Q92753 whole entry): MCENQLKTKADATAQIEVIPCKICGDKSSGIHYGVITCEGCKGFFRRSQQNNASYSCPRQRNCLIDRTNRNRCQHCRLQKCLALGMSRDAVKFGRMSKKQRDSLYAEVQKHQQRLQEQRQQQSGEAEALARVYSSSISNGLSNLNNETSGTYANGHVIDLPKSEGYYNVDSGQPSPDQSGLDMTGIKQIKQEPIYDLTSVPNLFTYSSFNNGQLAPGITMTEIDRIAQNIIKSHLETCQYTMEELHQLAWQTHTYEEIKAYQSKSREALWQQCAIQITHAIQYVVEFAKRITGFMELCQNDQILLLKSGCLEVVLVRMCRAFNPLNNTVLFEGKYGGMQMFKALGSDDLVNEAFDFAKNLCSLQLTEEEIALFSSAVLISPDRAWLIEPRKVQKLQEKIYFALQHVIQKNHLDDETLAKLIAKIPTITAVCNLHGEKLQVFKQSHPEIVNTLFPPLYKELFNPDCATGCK

[22] = AUC (0 to infinity) in mouse at 0.3 mg/kg, iv measured at 2 to 1440 mins by LC-MS analysis; format: ADME, organism-based; parameters: dose 0.3 mg/kg, time 2-1440 min, route iv; conditions: in vivo
Mus musculus [23] = assay: Antiinflammatory activity against imiquimod-induced Balb/c mouse skin inflammation model assessed as reduction in severity index score at 20 mg/kg, po BID for 13 days; format: functional; parameters: scale not given: the % may be the effect or the level left; conditions: time 13 day
[24] = Toxicity in Balb/c mouse assessed as body weight loss at 5 to 20 mg/kg, po administered for 12 days; format: organism-based; conditions: in vivo, 288 h, dose 5-20 mg/kg, time 12 day
[25] = Cmax in mouse at 1 mg/kg, po measured at 5 to 1440 mins by LC-MS analysis; format: ADME, organism-based; parameters: time upper 1440 min, time lower 5 min, dose 1 mg/kg, route po; conditions: in vivo
[26] = Metabolic stability in human liver microsomes assessed as half life incubated for 5 to 30 mins by HPLC-MS/MS analysis; format: ADME, Microsome; conditions: microsomes, time 5-30 min
[27] = Clearance in mouse at 0.3 mg/kg, iv measured at 2 to 1440 mins by LC-MS analysis; format: ADME, organism-based; conditions: in vivo, time 2-1440 min
Mus musculus [28] = assay: Antiinflammatory activity against imiquimod-induced Balb/c mouse skin inflammation model assessed as reduction in total psoriasis area at 20 mg/kg, po BID for 13 days; format: functional, organism-based; conditions: time 13.0 day
Mus musculus [29] = assay: Antiinflammatory activity against imiquimod-induced Balb/c mouse skin inflammation model assessed as inhibition of IL-17A level at 20 mg/kg, po measured for 13 days; format: functional; parameters: scale not given: the % may be the effect or the level left; conditions: time 13 day

## CCc1ccc(N(C2CCC2)S(=O)(=O)c2ccc3c(c2)C(O)CC(C2CCOCC2)O3)cc1 (centres undefined)
[1]
  Tmax: 1.52 h
[2]
  logD: 3.69
[3]
  Stability: 45.1%
Mus musculus [4]
  Activity: Active
Mus musculus [5]
  Activity: inactive
[6]
  Tmax: 2.32 h
Mus musculus [7]
  Activity: Active
Mus musculus [8]
  Activity: Active
Mus musculus [9]
  Activity: 71.9%
[10]
  bioavailability: 55%
[11]
  AUC(0-t): 0.153 µg·h/mL
[12]
  AUC(0-t): 0.285 µg·h/mL
[13]
  solubility: 8.68 µg/mL (≈ 18.4 µM)
[14]
  half-life: 0.87 h
[15]
  AUC(0-inf): 0.298 µg·h/mL
[16]
  half-life: 1.32 h
[17]
  CLint scaled: 1.63 L/h/kg
[18]
  Cmax: 0.083 µg/mL
[19]
  Activity: Non-Toxic
[20]
  Vd: 1.54 L/kg
[21]
  pIC50: < 5.00
[22]
  AUC(0-inf): 0.163 µg·h/mL
Mus musculus [23]
  Activity: 70.5%
[24]
  Activity: Non-Toxic
[25]
  Cmax: 0.094 µg/mL
[26]
  t1/2: 0.817 h
[27]
  clearance: 2.32 L/h/kg
Mus musculus [28]
  Activity: Active
Mus musculus [29]
  Activity: 37.6%
